The values that follow come from ChEMBL document CHEMBL1144744, “Hypoxia-inducible factor-1 and nuclear factor-kappaB inhibitory meroterpene analogues of bakuchiol, a constituent of the seeds of Psoralea corylifolia” (Bioorg Med Chem Lett, 2008).

The structures appear in SMILES notation.

For assay [1], the target named is Hypoxia inducible factors; HIF-1-alpha, HIF-2-alpha (Homo sapiens, UniProt Q16665+Q99814). The assay is described as follows: Inhibition of hypoxia-induced HIF1 activation in human AGS cells by reporter gene assay. The format is cell-based.
A further assay concerns HeLa. The assay is described as follows: Cytotoxicity against human HeLa cells by MTT assay. The format is functional, cell-based.
For a further assay, the system named is AGS. The assay is described as follows: Cytotoxicity against human AGS cells by MTT assay. The format is functional, cell-based.
Assay [2] can be described thus: Inhibition of TNF-alpha-induced NF-kappaB activation in human HeLa cells. It is filed as cell-based.

In the case of `C=C[C@@](C)(/C=C/c1ccc(OC(C)(C)[C@@H](O)CC[C@@](C)(C=C)/C=C/c2ccc(O)cc2)cc1)CCC=C(C)C`, the concentration for half-maximal inhibition (IC50) was more than 50 µM in assay [1], more than 50 µM with HeLa, more than 50 µM in the assay on AGS and 12.2 µM in assay [2].

Consider `C=C[C@@](C)(/C=C/c1ccc(OCC)cc1)CCC=C(C)C`, for which the IC50 in assay [1] is 26.3 µM; in the assay on HeLa, more than 50 µM; in the assay on AGS it was more than 50 µM; in assay [2], 12.2 µM.

With `C=C[C@@](C)(/C=C/c1ccc(O)cc1)CCC(O)C(C)(C)O` (some centres not stated), the IC50 (in assay [1]; with HeLa; in the assay on AGS; in assay [2]) was more than 50 µM in each case.

With `C=C[C@@](C)(/C=C/c1ccc(OC)cc1)CCC=C(C)C`, the half-maximal inhibitory concentration (IC50) in assay [1] is 8.7 µM; in the assay on HeLa it was more than 50 µM; in the assay with AGS it was 55.8 µM; in assay [2] it was 5.7 µM.

In the case of `C=C[C@@](C)(/C=C/c1ccc(O)cc1)CCC1OC1(C)C` (some centres not stated), the IC50 (in assay [1]; in the assay on HeLa; with AGS; in assay [2]) was more than 50 µM in each case.

Regarding `C=C[C@@](C)(/C=C/c1ccc(OC(C)=O)cc1)CCC=C(C)C` [ACETYLBAKUCHIOL], the IC50 came to 5.7 µM in assay [1], 18.1 µM in the assay on HeLa, 26.8 µM with AGS and 5.7 µM in assay [2].

With `CO[C@H]1/C=C\C=C(/C)C(=O)NC2=CC(=O)C(NCCN(C)C)=C(C[C@@H](C)C[C@H](OC)[C@H](O)[C@@H](C)/C=C(\C)[C@@H]1OC(N)=O)C2=O` [ALVESPIMYCIN], the IC50 was 0.0036 µM in assay [1], 2.06 µM in the assay on HeLa, 16 µM in the assay with AGS and 0.15 µM in assay [2].

With `C=C[C@@](C)(/C=C/c1ccc(O)cc1)CCC=C(C)C` [BAKUCHIOL], the IC50 turned out to be 6.1 µM in assay [1], 11 µM in the assay with HeLa, 15.3 µM in the assay with AGS and 6.9 µM in assay [2].
